Reference: patent publication US20250195530A1, “POLQ INHIBITORS” (ASTRAZENECA AB, priority 2022, published 2025)
Like-named read-outs stand apart in the source and are kept apart here. Blank lines part the entries; values can stand above or below the molecule they belong to.

What was measured:
DLD-1 BRCA2−/− cells = experiment: Homologous recombination synthetic lethal inhibition of proliferation, DLD-1 BRCA2-/- (Cell Titre Glo 3D); format: cell-based; conditions: for IC50: Homo sapiens
How it was run: (§1)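 Read-out: CellTiter-Glo 3D luminescence, day 7 for wt DLD-1, day 12 for BRCA2−/−, about 8-9 population doublings each. Seeding 1,500 or 3,000 cells/mL respectively. Dose range 10 μM–0.51 nM, 3-fold, 10 points, with re-dosing on day 6. IC50 from curve fit.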

DLD-1 cells = experiment: Inhibition of proliferation, DLD-1 BRCA2 wt control (Cell Titre Glo 3D); format: cell-based; conditions: for IC50: Homo sapiens
How it was run: as §1

[1] = DLD-1, proliferation, luminescence, taken as DLD-1 BRCA2-/-, read-out: POLQ PD Prolif Lumin (converted)
[2] = DLD-1, proliferation, luminescence, second Prolif column (c6), taken as DLD-1 BRCA2 wt control, read-out: POLQ PD Prolif Lumin (converted)
[3] = DLD-1, 288 h, DLD-1 BRCA2−/− cells, 12 days, read-out: POLQ PD Prolif Lumin BRCA2 −/− mean pIC50 (converted)
[4] = DLD-1, 168 h, DLD-1 BRCA2 wt cells, 7 days, read-out: POLQ PD Prolif Lumin DLD1 mean pIC50 (converted)
[5] = DLD-1, DLD-1 BRCA2 −/− cells, mean, read-out: POLQ PD Prolif Lumin BRCA2 −/− mean pIC50 (converted)
[6] = DLD-1, DLD1 BRCA2 wt cells, mean, read-out: POLQ PD Prolif Lumin DLD1 mean PIC50 (converted)
[7] = DLD-1, DLD-1 BRCA2-/- proliferation, column head only partly shown, read-out: POLQ PD Prolif Lumin (converted)
[8] = DLD-1, DLD-1 BRCA2 wt control proliferation, column head only partly shown, read-out: POLQ PD Prolif Lumin (converted)
[9] = DLD-1, first proliferation column (c5), DLD-1 BRCA2-/-, read-out: POLQ PD Prolif Lumin (converted)
[10] = DLD-1, second proliferation column (c6), DLD-1 BRCA2 wt control, read-out: POLQ PD Prolif Lumin (converted)

Compound: CN1CCCC(Oc2ccc(-c3nc4c(OC5(C)CC5)ncnc4n3Cc3ccccc3)c(Cl)c2)CC1 (single isomer, unassigned) [Example D14, 9-benzyl-8-(2-chloro-4-((1-methylazepan-4-yl)oxy)phenyl)-6-(1-methylcyclopropoxy)-9H-purine]
POLQ PD Prolif Lumin BRCA2 −/− mean pIC50 (DLD-1 BRCA2−/− cells; DLD-1 BRCA2−/− cells, 12 days): 7.0 | POLQ PD Prolif Lumin DLD1 mean pIC50 (DLD-1 cells; DLD-1 BRCA2 wt cells, 7 days): 5.4

Compound: CC1(Oc2ncnc3c2nc(-c2ccc(OCCN4CCNCC4)cc2Cl)n3Cc2ccc(Cl)cn2)CC1 [Example K3, 8-(2-chloro-4-(2-(piperazin-1-yl)ethoxy)phenyl)-9-((5-chloropyridin-2-yl)methyl)-6-(1-methylcyclopropoxy)-9H-purine]
IC50 (DLD-1 BRCA2−/− cells; [3]): 1260 nM | IC50 (DLD-1 cells; [4]): > 10000 nM

Compound: CC1(Oc2ncnc3c2nc(-c2ccc(OCCN4CCNCC4=O)cc2Cl)n3Cc2ccccc2)CC1 [Example M5, 1-(2-(4-(9-benzyl-6-(1-methylcyclopropoxy)-9H-purin-8-yl)-3-chlorophenoxy)ethyl)piperazin-2-one]
IC50 (DLD-1 BRCA2−/− cells; [3]): 100 nM | IC50 (DLD-1 cells; [4]): > 10000 nM

Compound: CC1(Oc2ncnc3c2nc(-c2ccc(OCCN4CCNCC4)cc2Cl)n3Cc2cscn2)CC1 [Example K2, 4-((8-(2-chloro-4-(2-(piperazin-1-yl)ethoxy)phenyl)-6-(1-methylcyclopropoxy)-9H-purin-9-yl)methyl)thiazole]
IC50 (DLD-1 BRCA2−/− cells; [3]): 2000 nM | IC50 (DLD-1 cells; [4]): 6310 nM

Compound: COc1c(OCCN2CCNCC2)ccc(-c2nc3c(OC4(C)CC4)ncnc3n2Cc2ccccc2)c1Cl [Example J3, 9-benzyl-8-(2-chloro-3-methoxy-4-(2-(piperazin-1-yl)ethoxy)phenyl)-6-(1-methylcyclopropoxy)-9H-purine]
IC50 (DLD-1 BRCA2−/− cells; [3]): 501 nM | IC50 (DLD-1 cells; [4]): 3160 nM

Compound: Cc1cc(OCCN2CCCC2)ncc1-c1nc2c(OC3(C)CC3)ncnc2n1Cc1ccccc1 [Example 21, 9-Benzyl-8-(4-methyl-6-(2-(pyrrolidin-1-yl)ethoxy)pyridin-3-yl)-6-(1-methylcyclopropoxy)-9H-purine]
IC50 (DLD-1 BRCA2−/− cells; [3]): 398 nM | IC50 (DLD-1 cells; [4]): > 10000 nM

Compound: COc1ccc(Cl)cc1Cn1c(-c2cccc(OC[C@H](C)CC(=O)O)c2Cl)nc2c(OC3(C)CC3)ncnc21 (single isomer, unassigned; isomer 2) [Example 51, 4-(2-Chloro-3-(9-(5-chloro-2-methoxybenzyl)-6-(1-methylcyclopropoxy)-9H-purin-8-yl)phenoxy)-3-methylbutanoic acid (isomer 2)]
IC50 (DLD-1 BRCA2−/− cells; DLD-1, 288 h, DLD-1 BRCA2−/−, 12 days, Cell Titre Glo 3D, read-out: POLQ PD Prolif Lumin BRCA2 −/− Mean pIC50 (converted)): 7.94 nM | IC50 (DLD-1 cells; DLD-1, 168 h, DLD-1 (BRCA2 wt control), 7 days, Cell Titre Glo 3D, read-out: POLQ PD Prolif Lumin DLD1 Mean pIC50 (converted)): > 10000 nM

Compound: Cc1cc(OCCN2CCNCC2)ccc1-c1nc2c(OC(C)C)ncnc2n1Cc1ccccc1 [Example B2, 9-benzyl-6-isopropoxy-8-(2-methyl-4-(2-(piperazin-1-yl)ethoxy)phenyl)-9H-purine]
IC50 (DLD-1 BRCA2−/− cells; [3]): 501 nM | IC50 (DLD-1 cells; [4]): 6310 nM

Compound: CC1(Oc2ccnc3c2nc(-c2ccc(OCCN4CCNCC4)cc2Cl)n3Cc2ccccc2)CCC1 [Example P4, 3-benzyl-2-(2-chloro-4-(2-(piperazin-1-yl)ethoxy)phenyl)-7-(1-methylcyclobutoxy)-3H-imidazo[4,5-b]pyridine]
IC50 (DLD-1 BRCA2−/− cells; [3]): 316 nM | IC50 (DLD-1 cells; [4]): 1260 nM

Compound: CC1(Oc2ncnc3c2nc(-c2ccc(OCCN4C[C@@H]5C[C@H]4CN5)cc2Cl)n3Cc2ccccc2)CC1 [Example R19, 8-(4-(2-((1S,4S)-2,5-diazabicyclo[2.2.1]heptan-2-yl)ethoxy)-2-chlorophenyl)-9-benzyl-6-(1-methylcyclopropoxy)-9H-purine]
IC50 (DLD-1 BRCA2−/− cells; [3]): 200 nM | IC50 (DLD-1 cells; [4]): 3980 nM

Continued, in another order:

IC50 (DLD-1 cells; [2]): > 10000 nM
Compound: Cc1cnc(Cn2c(-c3ccc(OCCN4CCNC[C@@H]4C)cc3Cl)nc3c(OC4(C)CC4)ncnc32)s1 [Example T393, (S)-2-((8-(2-chloro-4-(2-(2-methylpiperazin-1-yl)ethoxy)phenyl)-6-(1-methylcyclopropoxy)-9H-purin-9-yl)methyl)-5-methylthiazole]
IC50 (DLD-1 BRCA2−/− cells; [1]): 794 nM

IC50 (DLD-1 cells; [6]): > 10000 nM
Compound: Cc1cnc(Cn2c(-c3ccc(O[C@H]4CCNC4)cc3Cl)nc3c(OC4(C)CC4)ncnc32)s1 [Example T70, (S)-2-((8-(2-chloro-4-(pyrrolidin-3-yloxy)phenyl)-6-(1-methylcyclopropoxy)-9H-purin-9-yl)methyl)-5-methylthiazole]
IC50 (DLD-1 BRCA2−/− cells; [5]): 631 nM

IC50 (DLD-1 cells; [8]): > 10000 nM
Compound: CC(CCOc1ccc(-c2nc3c(OC4(C#N)CC4)ncnc3n2Cc2cccc(Cl)c2)c(Cl)c1)C(=O)O (racemic) [Example T252, 4-(3-chloro-4-(9-(3-chlorobenzyl)-6-(1-cyanocyclopropoxy)-9H-purin-8-yl)phenoxy)-2-methylbutanoic acid]
IC50 (DLD-1 BRCA2−/− cells; [7]): 398 nM

IC50 (DLD-1 cells; DLD-1, DLD1 BRCA2 wt, mean, read-out: POLQ PD Prolif Lumin DLD1 mean pIC50 (converted)): 7940 nM
Compound: COc1ccc(C)cc1Cn1c(-c2cccc(OCCC(=O)O)c2Cl)nc2c(OC3(C)CC3)ncnc21 [Example U89, 3-(2-chloro-3-(9-(2-methoxy-5-methylbenzyl)-6-(1-methylcyclopropoxy)-9H-purin-8-yl)phenoxy)propanoic acid]
IC50 (DLD-1 BRCA2−/− cells; DLD-1, DLD-1 BRCA2 −/−, mean, read-out: POLQ PD Prolif Lumin BRCA2 −/− mean pIC50 (converted)): 15.8 nM

IC50 (DLD-1 cells; [10]): > 10000 nM
Compound: Cc1cnc(Cn2c(-c3ccc(O[C@H]4CCN(C)C4)cc3Cl)nc3c(OC4(C)CC4)ncnc32)s1 [Example T140, (S)-2-((8-(2-chloro-4-((1-methylpyrrolidin-3-yl)oxy)phenyl)-6-(1-methylcyclopropoxy)-9H-purin-9-yl)methyl)-5-methylthiazole]
IC50 (DLD-1 BRCA2−/− cells; [9]): 251 nM

IC50 (DLD-1 cells; [10]): > 10000 nM
Compound: Cc1ccnc(Cn2c(-c3ccc(OCCN4CCCC4)cc3Cl)nc3c(OC4(C)CC4)ncnc32)c1 [Example T507, 8-(2-chloro-4-(2-(pyrrolidin-1-yl)ethoxy)phenyl)-6-(1-methylcyclopropoxy)-9-((4-methylpyridin-2-yl)methyl)-9H-purine]
IC50 (DLD-1 BRCA2−/− cells; [9]): 100 nM

IC50 (DLD-1 cells; [10]): > 10000 nM
Compound: Cc1cccc(C)c1Cn1c(-c2ccc(OCCC(C)C(=O)O)cc2Cl)nc2c(OC3(C)CC3)ncnc21 (racemic) [Example T571, 4-(3-chloro-4-(9-(2,6-dimethylbenzyl)-6-(1-methylcyclopropoxy)-9H-purin-8-yl)phenoxy)-2-methylbutanoic acid]
IC50 (DLD-1 BRCA2−/− cells; [9]): 1260 nM

IC50 (DLD-1 cells; [6]): > 10000 nM
Compound: Cc1cnc(Cn2c(-c3ccc(OCCN(C)C)cc3Cl)nc3c(OC4(C)CC4)ncnc32)s1 [Example T72, 2-(3-chloro-4-(6-(1-methylcyclopropoxy)-9-((5-methylthiazol-2-yl)methyl)-9H-purin-8-yl)phenoxy)-N,N-dimethylethan-1-amine]
IC50 (DLD-1 BRCA2−/− cells; [5]): 200 nM

IC50 (DLD-1 cells; [8]): > 10000 nM
Compound: CC(CCOc1ccc(-c2nc3c(OC4(C)CC4)ncnc3n2Cc2cc(Cl)ccc2F)c(Cl)c1)C(=O)O (racemic) [Example T268, 4-(3-chloro-4-(9-(5-chloro-2-fluorobenzyl)-6-(1-methylcyclopropoxy)-9H-purin-8-yl)phenoxy)-2-methylbutanoic acid]
IC50 (DLD-1 BRCA2−/− cells; [7]): 63.1 nM

IC50 (DLD-1 cells; [10]): > 10000 nM
Compound: CC1(Oc2ncnc3c2nc(-c2ccc(OCCN4CCNCC4)cc2Cl)n3Cc2ccc(C#N)cn2)CC1 [Example T484, 6-((8-(2-chloro-4-(2-(piperazin-1-yl)ethoxy)phenyl)-6-(1-methylcyclopropoxy)-9H-purin-9-yl)methyl)nicotinonitrile]
IC50 (DLD-1 BRCA2−/− cells; [9]): > 7940 nM

IC50 (DLD-1 cells; [8]): > 10000 nM
Compound: CC(CCOc1ccc(-c2nc3c(OC4(C)CC4)ncnc3n2Cc2cc(Br)ccc2F)c(Cl)c1)C(=O)O (racemic) [Example T258, 4-(4-(9-(5-bromo-2-fluorobenzyl)-6-(1-methylcyclopropoxy)-9H-purin-8-yl)-3-chlorophenoxy)-2-methylbutanoic acid]
IC50 (DLD-1 BRCA2−/− cells; [7]): 79.4 nM

IC50 (DLD-1 cells; [6]): > 10000 nM
Compound: Cc1ccnc(Cn2c(-c3ccc(OCCN)cc3Cl)nc3c(OC4(C)CC4)ncnc32)c1 [Example T69, 2-(3-chloro-4-(6-(1-methylcyclopropoxy)-9-((4-methylpyridin-2-yl)methyl)-9H-purin-8-yl)phenoxy)ethan-1-amine]
IC50 (DLD-1 BRCA2−/− cells; [5]): 200 nM

IC50 (DLD-1 cells; [2]): > 10000 nM
Compound: CC1(Oc2ncnc3c2nc(-c2ccc(OCCCCCC(=O)O)cc2Cl)n3Cc2cccc(Cl)c2)CC1 [Example T437, 6-(3-chloro-4-(9-(3-chlorobenzyl)-6-(1-methylcyclopropoxy)-9H-purin-8-yl)phenoxy)hexanoic acid]
IC50 (DLD-1 BRCA2−/− cells; [1]): 63.1 nM

POLQ PD Prolif Lumin DLD1 mean pIC50 (DLD-1 cells; DLD1 BRCA2 wt, mean): <5.0
Compound: COc1ccc(Cl)cc1Cn1c(-c2ccc(O[C@H]3CC[C@H](C(=O)O)CC3)cc2Cl)nc2c(OC3(C)CC3)ncnc21 [Example U43, (1r,4r)-4-(3-chloro-4-(9-(5-chloro-2-methoxybenzyl)-6-(1-methylcyclopropoxy)-9H-purin-8-yl)phenoxy)cyclohexane-1-carboxylic acid]
POLQ PD Prolif Lumin BRCA2 −/− mean pIC50 (DLD-1 BRCA2−/− cells; DLD-1 BRCA2 −/−, mean): 7.2
